Source: article PMC5064435, “Inhibition of endoplasmic reticulum glucosidases is required for in vitro and in vivo dengue antiviral activity by the iminosugar UV-4” (Antiviral Research, 2016)

Legend:
Assay type in all cases: biochemical
Rat intestinal sucrase = target: T1, Rat intestinal sucrase (Rattus norvegicus, UniProt P23739); experiment: enzyme inhibition assay; settings: read-out: IC50 ^a / MON-6d-DGJ
T1 construct: gene Si; native rat intestinal enzyme; sucrase (C-terminal) subunit of sucrase-isomaltase
Source text: enzyme inhibition assay on Rat intestinal sucrase

[1] = target: T2, Rat intestinal isomaltase (Rattus norvegicus, UniProt P23739); experiment: enzyme inhibition assay; settings: read-out: IC50 ^a / MON-6d-DGJ
T2 construct: gene Si; native rat intestinal enzyme; isomaltase (N-terminal) subunit of sucrase-isomaltase
Source text: enzyme inhibition assay on Rat intestinal isomaltase

Mouse ER α-glucosidase I = target: T3, Mouse ER α-glucosidase I (Mus musculus, UniProt Q80UM7); experiment: enzyme inhibition assay, purified enzyme; settings: read-out: IC50 ^a / MON-6d-DGJ
T3 construct: gene Mogs
T3 sequence (Q80UM7 1-834): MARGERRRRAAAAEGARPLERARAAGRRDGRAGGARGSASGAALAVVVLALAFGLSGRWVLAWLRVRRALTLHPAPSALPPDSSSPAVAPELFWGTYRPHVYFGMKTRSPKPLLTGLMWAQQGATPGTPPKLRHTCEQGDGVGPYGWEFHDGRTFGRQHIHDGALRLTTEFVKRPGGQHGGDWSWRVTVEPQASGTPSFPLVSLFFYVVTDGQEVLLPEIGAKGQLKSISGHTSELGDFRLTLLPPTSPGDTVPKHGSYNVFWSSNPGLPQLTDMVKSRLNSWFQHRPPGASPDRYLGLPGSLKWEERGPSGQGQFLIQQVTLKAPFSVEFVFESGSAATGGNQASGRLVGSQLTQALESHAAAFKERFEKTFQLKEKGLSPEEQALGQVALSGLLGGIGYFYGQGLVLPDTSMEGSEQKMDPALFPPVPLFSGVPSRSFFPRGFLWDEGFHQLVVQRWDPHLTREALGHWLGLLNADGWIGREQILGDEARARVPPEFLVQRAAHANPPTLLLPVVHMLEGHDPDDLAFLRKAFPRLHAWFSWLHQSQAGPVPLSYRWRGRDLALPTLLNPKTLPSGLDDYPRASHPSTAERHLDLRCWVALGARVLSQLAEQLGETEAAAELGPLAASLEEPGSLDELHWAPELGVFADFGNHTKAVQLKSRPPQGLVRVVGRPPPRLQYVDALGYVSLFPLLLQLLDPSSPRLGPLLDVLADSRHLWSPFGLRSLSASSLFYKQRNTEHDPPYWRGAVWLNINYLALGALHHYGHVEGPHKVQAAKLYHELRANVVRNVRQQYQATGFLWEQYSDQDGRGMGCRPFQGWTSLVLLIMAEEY
Source text: enzyme inhibition assay, purified enzyme on Mouse ER α-glucosidase I

[2] = target: T4, Human lysosome (α-galactosidase) (Homo sapiens, UniProt P06280); experiment: enzyme inhibition assay; settings: read-out: IC50 ^a / MON-6d-DGJ
T4 construct: gene GLA
T4 sequence (P06280 32-429): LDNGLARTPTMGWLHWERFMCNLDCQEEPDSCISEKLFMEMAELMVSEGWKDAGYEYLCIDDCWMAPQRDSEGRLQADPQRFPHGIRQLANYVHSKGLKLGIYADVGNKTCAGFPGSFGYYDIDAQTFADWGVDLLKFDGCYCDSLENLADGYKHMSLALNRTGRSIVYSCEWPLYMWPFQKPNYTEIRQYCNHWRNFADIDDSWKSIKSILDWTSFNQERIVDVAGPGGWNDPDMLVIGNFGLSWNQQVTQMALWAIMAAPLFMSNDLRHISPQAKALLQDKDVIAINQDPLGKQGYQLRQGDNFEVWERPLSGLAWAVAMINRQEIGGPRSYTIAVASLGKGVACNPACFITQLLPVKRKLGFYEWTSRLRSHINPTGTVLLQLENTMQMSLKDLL
Source text: enzyme inhibition assay on Human lysosome (α-galactosidase)

Rat intestinal maltase = target: T5, Rat intestinal maltase; experiment: enzyme inhibition assay; settings: IC50 not reached up to maximal dose; read-out: IC50 ^a / MON-6d-DGJ
T5 construct: gene Mgam; native rat intestinal enzyme activity; maltase may be maltase-glucoamylase and/or sucrase-isomaltase
Source text: enzyme inhibition assay on Rat intestinal maltase

[3] = target: T6, Mouse ER α-glucosidase II (Mus musculus, UniProt Q8BHN3); experiment: enzyme inhibition assay, purified enzyme; settings: read-out: IC50 ^a / MON-6d-DGJ
T6 construct: gene Ganab; with Glucosidase 2 subunit beta
T6 sequence (Q8BHN3 33-944): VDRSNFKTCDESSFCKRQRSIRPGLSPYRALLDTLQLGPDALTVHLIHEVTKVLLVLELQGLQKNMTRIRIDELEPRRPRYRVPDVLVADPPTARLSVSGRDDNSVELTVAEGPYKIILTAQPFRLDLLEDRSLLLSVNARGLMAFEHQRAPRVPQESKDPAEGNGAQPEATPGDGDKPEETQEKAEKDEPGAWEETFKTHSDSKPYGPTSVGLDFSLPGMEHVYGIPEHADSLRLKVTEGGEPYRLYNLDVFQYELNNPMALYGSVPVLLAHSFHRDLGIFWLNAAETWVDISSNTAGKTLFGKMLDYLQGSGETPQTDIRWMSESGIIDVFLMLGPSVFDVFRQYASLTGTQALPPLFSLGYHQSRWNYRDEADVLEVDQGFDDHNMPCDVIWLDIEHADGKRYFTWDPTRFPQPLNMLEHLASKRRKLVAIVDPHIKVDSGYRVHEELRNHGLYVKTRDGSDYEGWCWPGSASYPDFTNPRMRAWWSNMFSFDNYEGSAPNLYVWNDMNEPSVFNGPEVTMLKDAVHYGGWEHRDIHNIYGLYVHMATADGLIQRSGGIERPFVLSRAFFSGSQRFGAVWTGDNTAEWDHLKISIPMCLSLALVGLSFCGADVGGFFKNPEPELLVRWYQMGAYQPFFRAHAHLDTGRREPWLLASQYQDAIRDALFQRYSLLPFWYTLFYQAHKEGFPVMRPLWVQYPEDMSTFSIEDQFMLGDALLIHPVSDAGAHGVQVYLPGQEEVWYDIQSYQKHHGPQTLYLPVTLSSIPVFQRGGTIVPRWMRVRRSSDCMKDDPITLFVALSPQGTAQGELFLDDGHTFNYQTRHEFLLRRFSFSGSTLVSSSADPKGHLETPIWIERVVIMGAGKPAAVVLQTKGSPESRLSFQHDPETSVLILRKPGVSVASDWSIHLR
T6 sequence (O08795 15-521 partner): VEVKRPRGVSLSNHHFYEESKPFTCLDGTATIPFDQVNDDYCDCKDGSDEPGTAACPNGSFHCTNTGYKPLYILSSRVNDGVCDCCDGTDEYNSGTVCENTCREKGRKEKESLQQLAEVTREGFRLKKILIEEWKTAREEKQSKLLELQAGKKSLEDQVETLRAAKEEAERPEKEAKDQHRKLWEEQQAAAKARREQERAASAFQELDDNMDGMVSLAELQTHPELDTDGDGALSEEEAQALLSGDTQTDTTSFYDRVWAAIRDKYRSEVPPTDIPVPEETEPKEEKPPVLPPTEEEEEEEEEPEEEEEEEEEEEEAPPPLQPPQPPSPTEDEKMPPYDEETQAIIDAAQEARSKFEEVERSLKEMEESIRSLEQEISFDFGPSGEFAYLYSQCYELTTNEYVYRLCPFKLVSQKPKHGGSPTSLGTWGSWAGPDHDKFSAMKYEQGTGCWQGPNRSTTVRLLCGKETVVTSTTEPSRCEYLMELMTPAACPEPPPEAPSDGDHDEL
Source text: enzyme inhibition assay, purified enzyme on Mouse ER α-glucosidase II

[4] = target: T7, Human lysosome (α-glucosidase) (Homo sapiens, UniProt P10253); experiment: enzyme inhibition assay; settings: read-out: IC50 ^a / MON-6d-DGJ
T7 construct: gene GAA
Source text: enzyme inhibition assay on Human lysosome (α-glucosidase)

[5] = target: T8, ceramide glucosyltransferase (HL60 glucosyltransferase) (Homo sapiens, UniProt Q16739); experiment: enzyme inhibition assay, enzyme isolated from HL60 cells; settings: read-out: IC50 ^a / MON-6d-DGJ
T8 construct: gene UGCG; native enzyme isolated from human promyelocytic HL60 cells
T8 sequence (Q16739 1-394): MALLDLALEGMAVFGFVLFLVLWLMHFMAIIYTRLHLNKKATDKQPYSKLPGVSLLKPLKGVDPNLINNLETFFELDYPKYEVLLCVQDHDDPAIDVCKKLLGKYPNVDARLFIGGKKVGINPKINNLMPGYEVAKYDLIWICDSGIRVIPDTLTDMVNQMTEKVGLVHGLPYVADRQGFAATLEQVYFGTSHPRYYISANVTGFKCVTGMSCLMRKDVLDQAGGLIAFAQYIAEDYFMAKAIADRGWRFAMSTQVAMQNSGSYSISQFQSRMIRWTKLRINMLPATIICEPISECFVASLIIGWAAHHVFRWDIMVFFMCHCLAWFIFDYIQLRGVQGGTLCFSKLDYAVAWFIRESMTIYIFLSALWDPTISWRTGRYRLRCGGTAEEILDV
Source text: enzyme inhibition assay, enzyme isolated from HL60 cells on ceramide glucosyltransferase (HL60 glucosyltransferase)

T1 sequence (P23739 1014-1841 limits assumed): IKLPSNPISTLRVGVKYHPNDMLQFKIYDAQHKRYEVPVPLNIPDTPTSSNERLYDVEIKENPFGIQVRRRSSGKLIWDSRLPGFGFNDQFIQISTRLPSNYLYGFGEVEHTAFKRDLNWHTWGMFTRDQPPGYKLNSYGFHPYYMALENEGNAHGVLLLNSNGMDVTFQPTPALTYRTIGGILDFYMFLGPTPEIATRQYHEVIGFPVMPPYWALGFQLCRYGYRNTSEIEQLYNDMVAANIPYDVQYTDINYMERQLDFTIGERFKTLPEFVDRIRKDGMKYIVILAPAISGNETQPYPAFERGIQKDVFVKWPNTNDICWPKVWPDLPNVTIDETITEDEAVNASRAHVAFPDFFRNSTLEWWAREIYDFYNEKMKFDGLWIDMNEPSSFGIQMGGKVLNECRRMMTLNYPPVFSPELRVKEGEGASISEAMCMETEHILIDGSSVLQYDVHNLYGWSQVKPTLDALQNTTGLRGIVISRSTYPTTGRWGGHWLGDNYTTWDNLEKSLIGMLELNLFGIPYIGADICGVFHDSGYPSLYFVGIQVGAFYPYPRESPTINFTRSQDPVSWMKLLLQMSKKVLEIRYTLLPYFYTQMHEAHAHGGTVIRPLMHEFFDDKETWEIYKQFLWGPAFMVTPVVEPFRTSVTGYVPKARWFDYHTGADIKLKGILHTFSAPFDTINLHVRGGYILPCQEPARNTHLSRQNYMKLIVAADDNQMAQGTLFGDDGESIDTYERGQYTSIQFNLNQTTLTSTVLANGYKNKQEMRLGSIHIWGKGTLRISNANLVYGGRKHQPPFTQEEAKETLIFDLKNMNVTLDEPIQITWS
T2 sequence (P23739 1-1013 limits assumed): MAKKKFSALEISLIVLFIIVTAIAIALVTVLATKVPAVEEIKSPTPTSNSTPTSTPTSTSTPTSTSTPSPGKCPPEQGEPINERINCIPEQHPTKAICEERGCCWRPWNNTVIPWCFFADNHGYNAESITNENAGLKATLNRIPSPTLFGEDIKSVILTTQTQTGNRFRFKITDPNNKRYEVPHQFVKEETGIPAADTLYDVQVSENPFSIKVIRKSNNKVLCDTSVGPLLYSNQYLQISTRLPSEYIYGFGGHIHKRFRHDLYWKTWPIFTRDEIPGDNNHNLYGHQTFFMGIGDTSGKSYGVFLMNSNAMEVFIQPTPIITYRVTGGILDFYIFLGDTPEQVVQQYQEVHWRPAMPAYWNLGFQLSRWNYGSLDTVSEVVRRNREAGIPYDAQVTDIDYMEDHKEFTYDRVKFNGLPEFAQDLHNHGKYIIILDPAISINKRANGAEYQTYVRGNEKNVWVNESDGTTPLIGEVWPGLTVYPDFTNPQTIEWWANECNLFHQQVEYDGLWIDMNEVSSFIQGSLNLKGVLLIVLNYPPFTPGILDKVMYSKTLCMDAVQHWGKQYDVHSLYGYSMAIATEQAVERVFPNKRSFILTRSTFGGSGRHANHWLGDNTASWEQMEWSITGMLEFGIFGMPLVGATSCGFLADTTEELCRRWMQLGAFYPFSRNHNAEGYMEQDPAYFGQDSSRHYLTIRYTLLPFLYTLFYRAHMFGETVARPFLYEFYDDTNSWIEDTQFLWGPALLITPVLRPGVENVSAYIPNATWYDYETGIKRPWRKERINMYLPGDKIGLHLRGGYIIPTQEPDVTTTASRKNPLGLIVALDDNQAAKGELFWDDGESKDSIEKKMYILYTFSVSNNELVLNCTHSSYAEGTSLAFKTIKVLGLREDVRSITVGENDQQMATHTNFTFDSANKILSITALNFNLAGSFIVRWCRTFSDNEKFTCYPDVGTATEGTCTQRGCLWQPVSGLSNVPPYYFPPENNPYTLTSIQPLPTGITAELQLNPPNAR

IC50 (Rat intestinal sucrase): > 1050 µM
IC50 [1]: > 1050 µM
IC50 (Mouse ER α-glucosidase I): > 1050 µM
IC50 [2]: 256 µM
IC50 (Rat intestinal maltase): > 1050 µM
IC50 [3]: > 1050 µM
IC50 [4]: > 1050 µM
IC50 [5]: 88.3 µM
SMILES: COCCCCCCCCCN1C[C@H](O)[C@@H](O)[C@@H](O)[C@H]1C [MON-6d-DGJ, N-(9′-methoxynonyl)-1,6-dideoxygalactonojirimycin]
